IC50 data for one molecule are collected here from ChEMBL document CHEMBL3886247, “Aurora and FLT3 kinases modulators” (2015).

One may read the IC50 as the concentration at which inhibition is half-maximal.

In one experiment the target is Aurora kinase B (Homo sapiens, UniProt Q96GD4). Briefly: Inhibition Assay: Kinase assays were performed at Reaction Biology Corp., Malvern, Pa., USA, using the following general procedure:1) Prepare indicated substrate in freshly prepared Base Reaction Buffer (20 mM Hepes pH 7.5, 10 mM MgCl2, 1 mM EGTA, 0.02% Brij35, 0.02 mg/ml BSA, 0.1 mM Na3VO4, 2 mM DTT, 1% DMSO).2) Deliver cofactors (1.5 mM CaCl2, 16 ug/mL Calmodulin, 2 mM MnCl2) to the substrate solution above.3) Deliver indicated kinase into the substrate solution and gently mix4) Deliver varying concentrations of test compound in DMSO into the kinase reaction mixture.5) Deliver 33P-ATP (specific activity 0.01 uCi/uL final) into the reaction mixture to initiate the reaction.6) Incubate kinase reaction for 120 min at room temperature.7) Reactions are spotted onto P81 ion exchange filter paper (Whatman #3698-915)8) Unbound phosphate is removed by washing filters extensively in 0.75% phosphoric acid.9) 33P signal was determined using Typhoon phosphorimagers (GE Healthcare).

Experiment [1] addresses T1, Receptor-type tyrosine-protein kinase FLT3 (Homo sapiens, UniProt P36888).
T1 sequence (P36888 whole entry): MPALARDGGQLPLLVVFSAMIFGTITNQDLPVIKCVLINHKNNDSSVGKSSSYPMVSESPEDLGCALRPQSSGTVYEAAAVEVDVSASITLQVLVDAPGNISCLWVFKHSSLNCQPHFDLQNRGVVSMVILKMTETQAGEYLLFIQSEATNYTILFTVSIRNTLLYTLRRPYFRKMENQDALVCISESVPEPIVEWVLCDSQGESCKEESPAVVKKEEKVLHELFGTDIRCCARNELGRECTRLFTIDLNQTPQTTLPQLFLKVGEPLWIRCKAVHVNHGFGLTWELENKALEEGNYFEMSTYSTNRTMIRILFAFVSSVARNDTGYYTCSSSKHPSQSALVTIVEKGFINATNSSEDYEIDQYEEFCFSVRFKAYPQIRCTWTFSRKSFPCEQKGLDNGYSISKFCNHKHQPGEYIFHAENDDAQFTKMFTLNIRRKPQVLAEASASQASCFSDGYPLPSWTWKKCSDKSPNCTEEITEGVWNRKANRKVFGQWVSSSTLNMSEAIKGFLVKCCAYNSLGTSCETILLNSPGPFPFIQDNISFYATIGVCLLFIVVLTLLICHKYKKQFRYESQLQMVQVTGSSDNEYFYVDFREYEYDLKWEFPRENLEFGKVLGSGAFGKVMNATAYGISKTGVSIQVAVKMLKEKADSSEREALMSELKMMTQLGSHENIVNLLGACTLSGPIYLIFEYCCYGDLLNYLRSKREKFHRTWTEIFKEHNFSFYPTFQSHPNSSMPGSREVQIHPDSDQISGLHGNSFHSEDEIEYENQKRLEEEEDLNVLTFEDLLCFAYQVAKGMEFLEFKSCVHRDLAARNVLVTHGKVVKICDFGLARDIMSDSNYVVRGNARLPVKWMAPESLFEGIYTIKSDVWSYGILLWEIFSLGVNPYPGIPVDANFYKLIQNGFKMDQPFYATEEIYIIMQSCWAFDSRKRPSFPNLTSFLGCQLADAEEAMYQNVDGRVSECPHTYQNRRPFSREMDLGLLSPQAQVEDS
The experiment can be described thus: Inhibition Assay: Kinase assays were performed at Reaction Biology Corp., Malvern, Pa., USA, using the following general procedure:1) Prepare indicated substrate in freshly prepared Base Reaction Buffer (20 mM Hepes pH 7.5, 10 mM MgCl2, 1 mM EGTA, 0.02% Brij35, 0.02 mg/ml BSA, 0.1 mM Na3VO4, 2 mM DTT, 1% DMSO).2) Deliver cofactors (1.5 mM CaCl2, 16 ug/mL Calmodulin, 2 mM MnCl2) to the substrate ….

Chain of Aurora kinase B (Q96GD4 whole entry): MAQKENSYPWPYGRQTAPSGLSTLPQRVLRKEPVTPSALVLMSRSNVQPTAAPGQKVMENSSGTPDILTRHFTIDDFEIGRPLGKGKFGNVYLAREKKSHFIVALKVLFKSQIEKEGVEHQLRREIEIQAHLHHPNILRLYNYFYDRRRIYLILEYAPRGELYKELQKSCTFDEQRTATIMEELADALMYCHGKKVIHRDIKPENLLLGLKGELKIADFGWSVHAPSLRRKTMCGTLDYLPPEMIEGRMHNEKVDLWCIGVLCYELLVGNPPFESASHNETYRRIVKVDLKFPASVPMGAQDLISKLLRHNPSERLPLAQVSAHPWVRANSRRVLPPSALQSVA

Turning to `CCc1ccc(-c2nc(C(N)=O)c(-c3ccc(N4CCNC(C)(C)C4)cc3)o2)c2cc[nH]c12`, the IC50 at Aurora kinase B amounted to 12 nM; in experiment [1], 0.67 nM.
